Read-outs that look alike come from different tables or passages of the source.
Assays:
Test in all cases: KinomeScan kinase panel, single concentration 10 µM
Format in all cases: binding
KinomeScan kinase panel [1] = target: T1, KinomeScan kinase panel (Homo sapiens, UniProt O14976); conditions: GAK, 10 µM; read-out: score (%)
T1 construct: purchased DiscoveRx (KinomeScan)
T1 sequence (O14976 1-1311): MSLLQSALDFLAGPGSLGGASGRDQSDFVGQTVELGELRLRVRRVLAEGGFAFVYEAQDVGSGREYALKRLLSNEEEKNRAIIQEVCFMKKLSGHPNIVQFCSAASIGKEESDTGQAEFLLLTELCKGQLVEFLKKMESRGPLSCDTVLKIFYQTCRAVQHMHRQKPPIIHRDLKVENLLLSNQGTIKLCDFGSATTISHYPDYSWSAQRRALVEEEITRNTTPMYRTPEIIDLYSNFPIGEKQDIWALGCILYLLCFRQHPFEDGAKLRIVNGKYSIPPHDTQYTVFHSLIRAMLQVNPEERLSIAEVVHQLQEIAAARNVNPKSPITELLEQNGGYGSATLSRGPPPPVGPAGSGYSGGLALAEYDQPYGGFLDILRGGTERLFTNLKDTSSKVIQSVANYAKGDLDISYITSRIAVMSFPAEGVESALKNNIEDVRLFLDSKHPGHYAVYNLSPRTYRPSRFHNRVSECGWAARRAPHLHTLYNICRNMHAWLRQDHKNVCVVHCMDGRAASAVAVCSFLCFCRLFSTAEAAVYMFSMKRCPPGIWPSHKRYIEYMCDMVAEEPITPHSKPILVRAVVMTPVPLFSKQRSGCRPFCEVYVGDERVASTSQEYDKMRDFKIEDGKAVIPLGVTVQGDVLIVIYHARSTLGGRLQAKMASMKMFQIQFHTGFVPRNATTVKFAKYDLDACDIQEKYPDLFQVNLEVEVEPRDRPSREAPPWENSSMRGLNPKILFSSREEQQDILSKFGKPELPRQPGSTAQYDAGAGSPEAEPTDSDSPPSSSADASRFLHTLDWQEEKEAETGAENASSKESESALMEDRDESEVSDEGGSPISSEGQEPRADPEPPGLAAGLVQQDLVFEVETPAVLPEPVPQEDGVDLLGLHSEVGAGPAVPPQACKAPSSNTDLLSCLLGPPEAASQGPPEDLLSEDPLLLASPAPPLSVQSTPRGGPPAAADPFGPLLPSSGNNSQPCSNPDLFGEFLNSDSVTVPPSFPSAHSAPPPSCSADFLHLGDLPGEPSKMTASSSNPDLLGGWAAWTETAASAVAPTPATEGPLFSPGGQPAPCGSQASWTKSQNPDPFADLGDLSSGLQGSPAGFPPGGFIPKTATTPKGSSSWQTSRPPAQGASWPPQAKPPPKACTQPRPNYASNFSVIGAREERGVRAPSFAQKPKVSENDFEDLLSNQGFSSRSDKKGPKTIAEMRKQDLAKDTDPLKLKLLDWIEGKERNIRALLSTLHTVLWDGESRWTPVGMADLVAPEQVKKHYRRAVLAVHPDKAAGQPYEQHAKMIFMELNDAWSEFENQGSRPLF

KinomeScan kinase panel [2] = target: T2, KinomeScan kinase panel (Homo sapiens, UniProt P57078); conditions: read-out: score (%)
T2 construct: purchased DiscoveRx (KinomeScan)
T2 sequence (P57078 1-832): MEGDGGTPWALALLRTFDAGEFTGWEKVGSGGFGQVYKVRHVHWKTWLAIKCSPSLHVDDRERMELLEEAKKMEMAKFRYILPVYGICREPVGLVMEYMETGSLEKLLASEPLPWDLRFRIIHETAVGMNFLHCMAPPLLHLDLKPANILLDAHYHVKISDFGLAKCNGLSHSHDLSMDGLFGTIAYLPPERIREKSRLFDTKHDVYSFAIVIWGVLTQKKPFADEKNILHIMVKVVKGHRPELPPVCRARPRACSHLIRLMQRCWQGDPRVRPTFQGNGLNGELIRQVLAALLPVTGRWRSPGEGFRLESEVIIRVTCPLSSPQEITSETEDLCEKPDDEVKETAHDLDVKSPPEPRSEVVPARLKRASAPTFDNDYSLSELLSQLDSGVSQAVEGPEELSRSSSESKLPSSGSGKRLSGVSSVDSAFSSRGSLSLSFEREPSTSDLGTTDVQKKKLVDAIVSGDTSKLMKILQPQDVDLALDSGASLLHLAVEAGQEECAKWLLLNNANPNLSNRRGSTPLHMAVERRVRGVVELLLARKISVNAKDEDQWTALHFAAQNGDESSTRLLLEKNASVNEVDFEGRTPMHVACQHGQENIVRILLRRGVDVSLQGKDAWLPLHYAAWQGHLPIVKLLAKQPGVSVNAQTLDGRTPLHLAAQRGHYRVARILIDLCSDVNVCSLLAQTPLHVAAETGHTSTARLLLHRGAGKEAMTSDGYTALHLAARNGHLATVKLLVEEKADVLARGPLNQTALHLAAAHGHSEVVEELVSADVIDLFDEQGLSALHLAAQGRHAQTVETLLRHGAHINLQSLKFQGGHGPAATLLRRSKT

KinomeScan kinase panel [3] = target: T3, KinomeScan kinase panel (Homo sapiens, UniProt Q12851); conditions: MAP4K2, 10 µM; read-out: score (%)
T3 construct: purchased DiscoveRx (KinomeScan)
T3 sequence (Q12851 1-820): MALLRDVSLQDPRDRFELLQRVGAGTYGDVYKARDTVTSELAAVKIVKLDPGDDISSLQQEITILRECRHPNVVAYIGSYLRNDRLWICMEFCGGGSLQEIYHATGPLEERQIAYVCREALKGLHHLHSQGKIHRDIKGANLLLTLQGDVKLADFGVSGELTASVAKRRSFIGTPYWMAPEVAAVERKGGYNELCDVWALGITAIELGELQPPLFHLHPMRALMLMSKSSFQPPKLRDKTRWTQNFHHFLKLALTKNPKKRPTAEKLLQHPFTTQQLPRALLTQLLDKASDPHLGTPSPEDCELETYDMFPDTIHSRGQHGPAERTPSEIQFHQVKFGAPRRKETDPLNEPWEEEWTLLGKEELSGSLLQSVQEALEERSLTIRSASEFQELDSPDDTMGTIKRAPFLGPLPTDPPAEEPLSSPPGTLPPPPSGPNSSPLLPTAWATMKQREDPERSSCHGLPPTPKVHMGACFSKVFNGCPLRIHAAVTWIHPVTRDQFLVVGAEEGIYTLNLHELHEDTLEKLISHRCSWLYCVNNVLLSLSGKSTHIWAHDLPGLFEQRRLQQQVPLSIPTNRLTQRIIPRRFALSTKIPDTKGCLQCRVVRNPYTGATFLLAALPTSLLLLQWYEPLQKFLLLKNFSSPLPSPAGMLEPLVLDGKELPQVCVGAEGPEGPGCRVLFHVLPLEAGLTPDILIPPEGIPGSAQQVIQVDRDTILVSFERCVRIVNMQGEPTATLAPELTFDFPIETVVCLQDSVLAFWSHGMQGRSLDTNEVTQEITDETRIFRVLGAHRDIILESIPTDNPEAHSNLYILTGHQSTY

KinomeScan kinase panel [4] = target: T4, KinomeScan kinase panel (Homo sapiens, UniProt Q9P286); conditions: read-out: score (%)
T4 construct: purchased DiscoveRx (KinomeScan)
T4 sequence (Q9P286 whole entry): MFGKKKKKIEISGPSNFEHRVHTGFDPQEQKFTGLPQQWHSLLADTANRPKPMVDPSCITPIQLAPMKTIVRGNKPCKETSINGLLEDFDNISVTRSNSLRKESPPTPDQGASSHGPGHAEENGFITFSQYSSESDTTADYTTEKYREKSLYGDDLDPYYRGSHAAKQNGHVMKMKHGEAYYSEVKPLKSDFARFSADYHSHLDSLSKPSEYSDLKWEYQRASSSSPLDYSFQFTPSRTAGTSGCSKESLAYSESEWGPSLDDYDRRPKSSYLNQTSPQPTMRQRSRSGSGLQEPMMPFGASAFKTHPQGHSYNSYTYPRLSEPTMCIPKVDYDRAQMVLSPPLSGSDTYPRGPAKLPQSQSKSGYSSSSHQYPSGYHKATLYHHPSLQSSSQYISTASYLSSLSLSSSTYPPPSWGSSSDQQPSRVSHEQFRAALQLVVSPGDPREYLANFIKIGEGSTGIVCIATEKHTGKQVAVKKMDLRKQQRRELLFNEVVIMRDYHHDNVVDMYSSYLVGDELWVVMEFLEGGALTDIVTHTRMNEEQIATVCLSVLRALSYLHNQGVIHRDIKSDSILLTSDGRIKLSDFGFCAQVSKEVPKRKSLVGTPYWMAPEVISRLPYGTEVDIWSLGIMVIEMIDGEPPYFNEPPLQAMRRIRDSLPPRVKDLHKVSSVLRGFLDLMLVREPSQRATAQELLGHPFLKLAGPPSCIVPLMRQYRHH

SMILES	remaining binding at 10 µM (KinomeScan kinase panel [1]) [%]	remaining binding at 10 µM (KinomeScan kinase panel [2]; RIPK4, 10 µM) [%]	remaining binding at 10 µM (KinomeScan kinase panel [3]) [%]	remaining binding at 10 µM (KinomeScan kinase panel [4]; PAK7, 10 µM) [%]	remaining binding at 10 µM (KinomeScan kinase panel [4]; PAK7/PAK5, 10 µM) [%]	remaining binding at 10 µM (KinomeScan kinase panel [2]; kinase RIPK4, 10 µM) [%]
CCN1CCN(Cc2ccc(NC(=O)c3ccc(C)c(NC(=O)c4cncc(-c5cccs5)c4)c3)cc2C(F)(F)F)CC1 [ALW-II-41-27]	1.6	> 30	0.6	> 30	–	–
CCN1CCN(Cc2ccc(NC(=O)c3ccc(C)c(/C=C/c4cnc5[nH]ccc5c4Cl)c3)cc2C(F)(F)F)CC1 [HG-6-63-01, (E)-3-(2-(4-chloro-1H-pyrrolo[2,3-b]pyridin-5-yl)vinyl)-N-(4-((4-ethylpiperazin-1-yl)methyl)-3-(trifluoromethyl)phenyl)-4-methylbenzamide]	4.3	> 30	0.25	–	> 30	–
CCN1CCN(Cc2ccc(NC(=O)c3ccc(C)c(C#Cc4cccnc4)c3)cc2C(F)(F)F)CC1 [XMD15-44]	7.4	–	0	83	–	48
